Data published in PubChem BioAssay (NCI).
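GI50 = concentration required for 50% inhibition of growth. TGI denotes the concentration required for complete inhibition of growth.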

What was measured:
Assay in all cases: NCI tumour cell line growth inhibition, 384-well format
SW-620 colon = system: SW-620 colon
HOP-62 NSCLC = system: HOP-62 NSCLC
ACHN renal = system: ACHN renal
SF-539 CNS = system: SF-539 CNS
MOLT-4 leukemia = system: MOLT-4 leukemia
SF-268 CNS = system: SF-268 CNS
IGROV1 ovarian = system: IGROV1 ovarian
K-562 leukemia = system: K-562 leukemia
SK-MEL-5 melanoma = system: SK-MEL-5 melanoma
OVCAR-3 ovarian = system: OVCAR-3 ovarian
SF-295 CNS = system: SF-295 CNS
A549 NSCLC = system: A549 NSCLC
NCI-H226 lung = system: NCI-H226 lung
NCI-H23 lung = system: NCI-H23 lung
BT-549 breast = system: BT-549 breast
U251 glioblastoma = system: U251 glioblastoma
CAKI-1 renal = system: CAKI-1 renal
LOX IMVI melanoma = system: LOX IMVI melanoma
SNB-19 CNS = system: SNB-19 CNS
NCI-H460 NSCLC = system: NCI-H460 NSCLC
HL-60(TB) leukemia = system: HL-60(TB) leukemia
T-47D breast = system: T-47D breast
MDA-MB-468 breast = system: MDA-MB-468 breast
MALME-3M melanoma = system: MALME-3M melanoma
PC-3 prostate = system: PC-3 prostate
HOP-92 NSCLC = system: HOP-92 NSCLC
NCI-H522 lung = system: NCI-H522 lung
DU-145 prostate = system: DU-145 prostate
RXF 393 renal = system: RXF 393 renal
SNB-75 CNS = system: SNB-75 CNS
UACC-257 melanoma = system: UACC-257 melanoma
UO-31 renal = system: UO-31 renal
M14 melanoma = system: M14 melanoma
786-0 renal = system: 786-0 renal
SK-OV-3 ovarian = system: SK-OV-3 ovarian
RPMI-8226 leukemia = system: RPMI-8226 leukemia
SN12C renal = system: SN12C renal
A498 renal = system: A498 renal
HT29 colon = system: HT29 colon
KM12 colon = system: KM12 colon
CCRF-CEM leukemia = system: CCRF-CEM leukemia
HCT-15 colon = system: HCT-15 colon
UACC-62 melanoma = system: UACC-62 melanoma
NCI-H322M lung = system: NCI-H322M lung
TK-10 renal = system: TK-10 renal
NCI/ADR-RES ovarian = system: NCI/ADR-RES ovarian
HS 578T breast = system: HS 578T breast
EKVX NSCLC = system: EKVX NSCLC
OVCAR-4 ovarian = system: OVCAR-4 ovarian
OVCAR-8 ovarian = system: OVCAR-8 ovarian
HCC-2998 colon = system: HCC-2998 colon
COLO 205 colon = system: COLO 205 colon
MDA-MB-435 melanoma = system: MDA-MB-435 melanoma
MCF7 breast = system: MCF7 breast
MDA-MB-231 breast = system: MDA-MB-231 breast
HCT-116 colon = system: HCT-116 colon
SK-MEL-28 melanoma = system: SK-MEL-28 melanoma

## C[C@H](Nc1ccc2c(c1)OCCn1cc(N3C(=O)OC[C@H]3C(F)F)nc1-2)C(N)=O
SW-620 colon
  GI50: 95.4 µM
  TGI: > 100 µM
HOP-62 NSCLC
  GI50: 34.6 µM
  TGI: > 100 µM
ACHN renal
  GI50: 15.2 µM
  TGI: > 100 µM
SF-539 CNS
  GI50: 17.6 µM
  TGI: > 100 µM
MOLT-4 leukemia
  GI50: 1.07 µM
  TGI: 10.6 µM
SF-268 CNS
  GI50: 24 µM
  TGI: > 100 µM
IGROV1 ovarian
  GI50: 0.0195 µM
  TGI: 0.141 µM
K-562 leukemia
  GI50: > 100 µM
  TGI: > 100 µM
SK-MEL-5 melanoma
  GI50: 43.4 µM
  TGI: > 100 µM
OVCAR-3 ovarian
  GI50: 3.27 µM
  TGI: 21.7 µM
SF-295 CNS
  GI50: 14.6 µM
  TGI: > 100 µM
A549 NSCLC
  GI50: 12.7 µM
  TGI: > 100 µM
NCI-H226 lung
  GI50: 38.5 µM
  TGI: > 100 µM
NCI-H23 lung
  GI50: 21.8 µM
  TGI: > 100 µM
BT-549 breast
  GI50: 14.5 µM
  TGI: > 100 µM
U251 glioblastoma
  GI50: 75.8 µM
  TGI: > 100 µM
CAKI-1 renal
  GI50: 3.11 µM
  TGI: 46.3 µM
LOX IMVI melanoma
  GI50: 12.5 µM
  TGI: 43.9 µM
SNB-19 CNS
  GI50: 85.3 µM
  TGI: > 100 µM
NCI-H460 NSCLC
  GI50: 0.802 µM
  TGI: > 100 µM
HL-60(TB) leukemia
  GI50: 0.156 µM
  TGI: 3.3 µM
T-47D breast
  GI50: 0.0131 µM
  TGI: 0.0728 µM
MDA-MB-468 breast
  GI50: 1.57 µM
  TGI: 10.9 µM
MALME-3M melanoma
  GI50: 5.85 µM
  TGI: > 100 µM
PC-3 prostate
  GI50: 3.82 µM
  TGI: > 100 µM
HOP-92 NSCLC
  GI50: 2.2 µM
  TGI: > 100 µM
NCI-H522 lung
  GI50: 19 µM
  TGI: > 100 µM
DU-145 prostate
  GI50: 18 µM
  TGI: > 100 µM
RXF 393 renal
  GI50: 15.9 µM
  TGI: 71.4 µM
SNB-75 CNS
  GI50: 3.2 µM
  TGI: > 100 µM
UACC-257 melanoma
  GI50: > 100 µM
  TGI: > 100 µM
UO-31 renal
  GI50: 6.24 µM
  TGI: > 100 µM
M14 melanoma
  GI50: > 100 µM
  TGI: > 100 µM
786-0 renal
  GI50: 40.5 µM
  TGI: > 100 µM
SK-OV-3 ovarian
  GI50: 0.049 µM
  TGI: > 100 µM
RPMI-8226 leukemia
  GI50: 16.1 µM
  TGI: 31.7 µM
SN12C renal
  GI50: 5.74 µM
  TGI: > 100 µM
A498 renal
  GI50: 15.2 µM
  TGI: > 100 µM
HT29 colon
  GI50: 0.289 µM
  TGI: > 100 µM
KM12 colon
  GI50: 19.5 µM
  TGI: 54.2 µM
CCRF-CEM leukemia
  GI50: 5.71 µM
  TGI: > 100 µM
HCT-15 colon
  GI50: 0.73 µM
  TGI: > 100 µM
UACC-62 melanoma
  GI50: 5.64 µM
  TGI: > 100 µM
NCI-H322M lung
  GI50: 2.85 µM
  TGI: 57.3 µM
TK-10 renal
  GI50: 4.03 µM
  TGI: > 100 µM
NCI/ADR-RES ovarian
  GI50: > 100 µM
  TGI: > 100 µM
HS 578T breast
  GI50: 6.24 µM
  TGI: 48.4 µM
EKVX NSCLC
  GI50: 2.99 µM
  TGI: 46.7 µM
OVCAR-4 ovarian
  GI50: 43.8 µM
  TGI: > 100 µM
OVCAR-8 ovarian
  GI50: 27 µM
  TGI: > 100 µM
HCC-2998 colon
  GI50: 5.68 µM
  TGI: > 100 µM
COLO 205 colon
  GI50: 0.987 µM
  TGI: > 100 µM
MDA-MB-435 melanoma
  GI50: 58.1 µM
  TGI: > 100 µM
MCF7 breast
  GI50: 0.039 µM
  TGI: > 100 µM
MDA-MB-231 breast
  GI50: 25.9 µM
  TGI: > 100 µM
HCT-116 colon
  GI50: 25.9 µM
  TGI: > 100 µM
SK-MEL-28 melanoma
  GI50: 7.96 µM
  TGI: > 100 µM
